# US20260022142A1, “MACROCYCLIC IMMUNOMODULATORS” (Bristol-Myers Squibb Company, priority 2022, published 2026)
# Bridge positions count the residues as written; N and C are the ends. Square brackets hold non-standard residues; d marks the D form. Peptide text beside a SMILES is read from it. * marks the point of attachment. ξ: configuration not given here. Trp(βS-Me) = C[C@@H](c1c[nH]c2ccccc12)[C@H](N)C(=O)O; Phe(4-COOH) = N[C@@H](Cc1ccc(C(=O)O)cc1)C(=O)O; Bip = N[C@@H](Cc1ccc(-c2ccccc2)cc1)C(=O)O; Phe(3-Me) = Cc1cccc(C[C@H](N)C(=O)O)c1; NH(CH2)12COOH = O=C(O)CCCCCCCCCCCCN*; Val(3-OH) = CC(C)(O)[C@H](N)C(=O)O; Cha = N[C@@H](CC1CCCCC1)C(=O)O; Cit = NC(=O)NCCC[C@H](N)C(=O)O; Thr(3ξ) = CC(O)[C@H](N)C(=O)O; NMeNle = CCCC[C@H](NC)C(=O)O; 12Ado = NCCCCCCCCCCCC(=O)O; Carboxymethyl = O=C(O)C*; Orn = NCCC[C@H](N)C(=O)O; Aun = NCCCCCCCCCCC(=O)O; Dab = NCC[C@H](N)C(=O)O; Dap = NC[C@H](N)C(=O)O; AEEA = NCCOCCOCC(=O)O; ξS = NC(CO)C(=O)O
# Biological target: T1, PD-1/PD-L1 interaction (PE-labeled human PD-L1-Ig binding to Jurkat cell line over-expressing human PD-1) (Homo sapiens, UniProt Q15116)
# T1 construct: expressed in transfected cells; host or cells: Jurkat
# Experiment: Jurkat-PD-1 Cell Binding High-Content Screening Assay (CBA)
# Assay type: cell-based
# Conditions: Jurkat cell line over-expressing human PD-1; PE-labeled PD-L1-Ig 20 nM final; read-out: Jurkat hPD1-PDL1 IC50
# Procedure, shortened: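 First, compound is added to PD-1-expressing Jurkat cells in serum-containing DMEM and left 2 h at 37° C. Next, PE-conjugated PD-L1-Ig is introduced at 20 nM final concentration for 1 hour. Finally, cells are fixed in 4% paraformaldehyde with Hoechst 33342, washed and imaged.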
# T1 sequence (Q15116 25-288): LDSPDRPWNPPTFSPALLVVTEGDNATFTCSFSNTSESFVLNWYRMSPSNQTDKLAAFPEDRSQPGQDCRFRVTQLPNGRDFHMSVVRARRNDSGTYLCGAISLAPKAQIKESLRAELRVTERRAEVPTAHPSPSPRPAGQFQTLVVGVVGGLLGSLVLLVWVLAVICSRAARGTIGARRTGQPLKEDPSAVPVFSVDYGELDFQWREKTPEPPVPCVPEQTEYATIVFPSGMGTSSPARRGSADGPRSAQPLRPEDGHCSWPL
row,IC50 [nM],SMILES
1,40.7,Cc1cccc(C[C@@H]2NC(=O)[C@H](CC(=O)O)NC(=O)[C@H](Cc3ccc(OCC(=O)O)cc3)NC(=O)[C@H](C(C)O)NC(=O)CSC[C@@H](C(=O)N[C@@H](CCN)C(=O)NCCOCCOCC(=O)NCCCCCCCCCCCCC(=O)O)NC(=O)[C@H](CC(=O)O)NC(=O)[C@H](C(C)C)NC(=O)[C@H](CC3CCCCC3)NC(=O)[C@H](CCN)NC(=O)[C@@H](CC(C)C)NC(=O)[C@H](CCCN)NC(=O)[C@H](Cc3ccc(C(=O)O)cc3)NC(=O)[C@H](Cc3ccc(-c4ccccc4)cc3)NC(=O)[C@H](Cc3ccc(C(=O)O)cc3)NC2=O)c1 (stereo partly drawn) [Compound 3843] ({CH2CO}-[Thr(3ξ)]Y(Carboxymethyl)D[Phe(3-Me)][Phe(4-COOH)][Bip][Phe(4-COOH)][Orn][dL][Dab][Cha]VDC[Dab][AEEA]-{NH(CH2)12COOH}; thioether N-14)
2,8.7,Cc1cccc(C[C@@H]2NC(=O)[C@H](CC(=O)O)NC(=O)[C@H](Cc3ccc(OCC(=O)O)cc3)NC(=O)[C@H](CCCNC(=N)N)NC(=O)CSC[C@@H](C(=O)N[C@@H](CCN)C(=O)NCCCCCCCCCCC(=O)O)NC(=O)[C@H](CCC(=O)O)NC(=O)[C@H](C(C)(C)O)NC(=O)[C@H](CC3CCCCC3)NC(=O)[C@H](CCN)NC(=O)[C@@H](CC(C)C)NC(=O)[C@H](CCCN)NC(=O)[C@H](Cc3ccc(OCC(=O)O)cc3)NC(=O)[C@H](Cc3ccc(-c4ccccc4)cc3)NC(=O)[C@H](Cc3ccc(OCC(=O)O)cc3)NC2=O)c1 [Compound 2863] ({CH2CO}-RY(Carboxymethyl)D[Phe(3-Me)]Y(Carboxymethyl)[Bip]Y(Carboxymethyl)[Orn][dL][Dab][Cha][Val(3-OH)]EC[Dab][Aun]-OH; thioether N-14)
3,18.9,Cc1cccc(C[C@@H]2NC(=O)[C@H](CC(=O)O)NC(=O)[C@H](Cc3ccc(OCC(=O)O)cc3)NC(=O)[C@H](CCCNC(=N)N)NC(=O)CSC[C@@H](C(=O)N[C@@H](CCCN)C(=O)NCCCCCCCCCCC(=O)O)NC(=O)[C@H]([C@@H](C)O)NC(=O)[C@H](C(C)C)NC(=O)[C@H](CC3CCCCC3)NC(=O)[C@H](CCN)NC(=O)[C@@H](CC(C)C)NC(=O)[C@H](CCCN)NC(=O)[C@H](CCCNC(N)=O)NC(=O)[C@H](Cc3ccc(-c4ccccc4)cc3)NC(=O)[C@H](Cc3ccc(O)cc3)NC2=O)c1 [Compound 2835] ({CH2CO}-RY(Carboxymethyl)D[Phe(3-Me)]Y[Bip][Cit][Orn][dL][Dab][Cha]VTC[Orn][Aun]-OH; thioether N-14)
4,109,CC(C)C[C@H]1NC(=O)[C@H](CCCN)NC(=O)[C@H](Cc2ccc(OCC(=O)O)cc2)NC(=O)[C@H](Cc2ccc(-c3ccccc3)cc2)NC(=O)[C@H](Cc2ccc(OCC(=O)O)cc2)NC(=O)[C@H]([C@@H](C)c2c[nH]c3ccccc23)NC(=O)[C@H](CC(=O)O)NC(=O)[C@H](Cc2ccc(OCC(=O)O)cc2)NC(=O)[C@H](CCCNC(=N)N)NC(=O)CSC[C@@H](C(=O)N[C@@H](CCN)C(=O)NCCCCCCCCCCC(=O)O)NC(=O)[C@H]([C@@H](C)O)NC(=O)[C@H](C(C)C)NC(=O)[C@H](CC2CCCCC2)NC(=O)[C@H](CCN)NC1=O [Compound 2138] ({CH2CO}-RY(Carboxymethyl)D[Trp(βS-Me)]Y(Carboxymethyl)[Bip]Y(Carboxymethyl)[Orn][dL][Dab][Cha]VTC[Dab][Aun]-OH; thioether N-14)
5,16.5,Cc1cccc(C[C@@H]2NC(=O)[C@H](CC(=O)O)NC(=O)[C@H](Cc3ccc(OCC(=O)O)cc3)NC(=O)[C@H](CN)NC(=O)CSC[C@@H](C(=O)N[C@H](CO)C(=O)N[C@@H](CCC(=O)O)C(=O)NCCCCCCCCCCC(=O)O)NC(=O)[C@H]([C@@H](C)O)NC(=O)[C@H](C(C)C)NC(=O)[C@H](CC3CCCCC3)NC(=O)[C@H](CCN)NC(=O)[C@@H](CC(C)C)NC(=O)[C@H](CCCN)NC(=O)[C@H](CCCNC(N)=O)NC(=O)[C@H](Cc3ccc(-c4ccccc4)cc3)NC(=O)[C@H](C(C)C)NC2=O)c1 [Compound 2807] ({CH2CO}-[Dap]Y(Carboxymethyl)D[Phe(3-Me)]V[Bip][Cit][Orn][dL][Dab][Cha]VTC[dS]E[Aun]-OH; thioether N-14)
6,42.8,CCCC[C@H]1C(=O)N[C@@H](Cc2ccc(OCC(=O)O)cc2)C(=O)N[C@@H](CC(=O)O)C(=O)N[C@@H](Cc2cccc(C)c2)C(=O)N[C@@H](C(C)C)C(=O)N[C@@H](Cc2ccc(-c3ccccc3)cc2)C(=O)N[C@@H](CCCNC(N)=O)C(=O)N[C@@H](CCCN)C(=O)N[C@H](CC(C)C)C(=O)N[C@@H](CCN)C(=O)N[C@@H](CC2CCCCC2)C(=O)N[C@@H](C(C)C)C(=O)N[C@@H](C(C)O)C(=O)N[C@H](C(=O)N[C@@H](CCN)C(=O)NCCCCCCCCCCC(=O)O)CSCC(=O)N1C (stereo partly drawn) [Compound 3555] ({CH2CO}-[NMeNle]Y(Carboxymethyl)D[Phe(3-Me)]V[Bip][Cit][Orn][dL][Dab][Cha]V[Thr(3ξ)]C[Dab][Aun]-OH; thioether N-14)
7,27.8,Cc1cccc(C[C@@H]2NC(=O)[C@H](CC(=O)O)NC(=O)[C@H](Cc3ccc(OCC(=O)O)cc3)NC(=O)[C@H](CN)NC(=O)CSC[C@@H](C(=O)N[C@@H](CCCN)C(=O)N[C@@H](CO)C(=O)NCCCCCCCCCCCC(=O)O)NC(=O)[C@H](CCCN)NC(=O)[C@H](C(C)C)NC(=O)[C@H](CC3CCCCC3)NC(=O)[C@H](CCN)NC(=O)[C@@H](CC(C)C)NC(=O)[C@H](CCCN)NC(=O)[C@H](Cc3ccc(O)cc3)NC(=O)[C@H](Cc3ccc(-c4ccccc4)cc3)NC(=O)[C@H](C(C)C)NC2=O)c1 [Compound 3589] ({CH2CO}-[Dap]Y(Carboxymethyl)D[Phe(3-Me)]V[Bip]Y[Orn][dL][Dab][Cha]V[Orn]C[Orn]S[12Ado]-OH; thioether N-14)
8,72.1,CC(C)C[C@H]1NC(=O)[C@H](CCCN)NC(=O)[C@H](Cc2ccc(O)cc2)NC(=O)[C@H](Cc2ccc(-c3ccccc3)cc2)NC(=O)[C@H](Cc2ccc(O)cc2)NC(=O)[C@H](Cc2c[nH]c3ccccc23)NC(=O)[C@H](CC(=O)O)NC(=O)[C@H](Cc2ccc(C(=O)O)cc2)NC(=O)[C@H](Cc2ccc(OCC(=O)O)cc2)NC(=O)CSC[C@@H](C(=O)N[C@@H](CCN)C(=O)NCCCCCCCCCCC(=O)O)NC(=O)[C@H](CCCCN)NC(=O)[C@H](Cc2ccc(O)cc2)NC(=O)[C@H](CC2CCCCC2)NC(=O)[C@H](CCN)NC1=O [Compound 2507] ({CH2CO}-Y(Carboxymethyl)[Phe(4-COOH)]DWY[Bip]Y[Orn][dL][Dab][Cha]YKC[Dab][Aun]-OH; thioether N-14)
9,5.8,Cc1cccc(C[C@@H]2NC(=O)[C@H](CC(=O)O)NC(=O)[C@H](Cc3ccc(OCC(=O)O)cc3)NC(=O)[C@H](CCCNC(=N)N)NC(=O)CSC[C@@H](C(=O)NCCOCCOCC(=O)NCCCCCCCCCCC(=O)O)NC(=O)[C@H](CCC(N)=O)NC(=O)[C@H](C(C)C)NC(=O)[C@H](CC3CCCCC3)NC(=O)[C@H](CCN)NC(=O)[C@@H](CC(C)C)NC(=O)[C@H](CCN)NC(=O)[C@H](Cc3ccc(O)cc3)NC(=O)[C@H](Cc3ccc(-c4ccccc4)cc3)NC(=O)[C@H](C(C)C)NC2=O)c1 [Compound 3398] ({CH2CO}-RY(Carboxymethyl)D[Phe(3-Me)]V[Bip]Y[Dab][dL][Dab][Cha]VQC[AEEA][Aun]-OH; thioether N-14)
10,53.4,Cc1cccc(C[C@@H]2NC(=O)[C@H](CC(=O)O)NC(=O)[C@H](Cc3ccc(OCC(=O)O)cc3)NC(=O)[C@H](CN)NC(=O)CSC[C@@H](C(=O)N[C@@H](CCN)C(=O)NCCCCCCCCCCC(=O)O)NC(=O)C(CO)NC(=O)[C@H](C(C)C)NC(=O)[C@H](CC3CCCCC3)NC(=O)[C@H](CCN)NC(=O)[C@@H](CC(C)C)NC(=O)[C@H](CCCN)NC(=O)[C@H](Cc3ccc(O)cc3)NC(=O)[C@H](Cc3ccc(-c4ccccc4)cc3)NC(=O)[C@H](C(C)C)NC2=O)c1 (stereo partly drawn) [Compound 2098] ({CH2CO}-[Dap]Y(Carboxymethyl)D[Phe(3-Me)]V[Bip]Y[Orn][dL][Dab][Cha]V[ξS]C[Dab][Aun]-OH; thioether N-14)
11,13.4,CC(C)C[C@H]1NC(=O)[C@H](CCCN)NC(=O)[C@H](C(C)C)NC(=O)[C@H](Cc2ccc(-c3ccccc3)cc2)NC(=O)[C@H](C(C)C)NC(=O)[C@H](Cc2c[nH]c3ccccc23)NC(=O)[C@H](CC(=O)O)NC(=O)[C@H](Cc2ccc(OCC(=O)O)cc2)NC(=O)[C@H](C(C)O)NC(=O)CSC[C@@H](C(=O)N[C@@H](CCN)C(=O)NCCCCCCCCCCC(=O)O)NC(=O)[C@H](CCN)NC(=O)[C@H](C(C)O)NC(=O)[C@H](CC2CCCCC2)NC(=O)[C@H](CCN)NC1=O (stereo partly drawn) [Compound 3674] ({CH2CO}-[Thr(3ξ)]Y(Carboxymethyl)DWV[Bip]V[Orn][dL][Dab][Cha][Thr(3ξ)][Dab]C[Dab][Aun]-OH; thioether N-14)
12,16.4,Cc1cccc(C[C@@H]2NC(=O)[C@H](CC(=O)O)NC(=O)[C@H](Cc3ccc(OCC(=O)O)cc3)NC(=O)[C@H](C(C)O)NC(=O)CSC[C@@H](C(=O)N[C@@H](CCN)C(=O)NCCCCCCCCCCC(=O)O)NC(=O)[C@H](C(C)O)NC(=O)[C@H](C(C)C)NC(=O)[C@H](CC3CCCCC3)NC(=O)[C@H](CCN)NC(=O)[C@@H](CC(C)C)NC(=O)[C@H](CCCN)NC(=O)[C@H](Cc3ccc(OCC(=O)O)cc3)NC(=O)[C@H](Cc3ccc(-c4ccccc4)cc3)NC(=O)[C@H](CCCNC(N)=O)NC2=O)c1 (stereo partly drawn) [Compound 3485] ({CH2CO}-[Thr(3ξ)]Y(Carboxymethyl)D[Phe(3-Me)][Cit][Bip]Y(Carboxymethyl)[Orn][dL][Dab][Cha]V[Thr(3ξ)]C[Dab][Aun]-OH; thioether N-14)
13,10.8,Cc1cccc(C[C@@H]2NC(=O)[C@H](CC(=O)O)NC(=O)[C@H](Cc3ccc(OCC(=O)O)cc3)NC(=O)[C@H](CCCNC(=N)N)NC(=O)CSC[C@@H](C(=O)N[C@@H](CCN)C(=O)NCCCCCCCCCCC(=O)O)NC(=O)[C@H](C(C)O)NC(=O)[C@H](C(C)(C)O)NC(=O)[C@H](CC3CCCCC3)NC(=O)[C@H](CCN)NC(=O)[C@@H](CC(C)C)NC(=O)[C@H](CCCN)NC(=O)[C@H](Cc3ccc(OCC(=O)O)cc3)NC(=O)[C@H](Cc3ccc(-c4ccccc4)cc3)NC(=O)[C@H](Cc3ccc(OCC(=O)O)cc3)NC2=O)c1 (stereo partly drawn) [Compound 3513] ({CH2CO}-RY(Carboxymethyl)D[Phe(3-Me)]Y(Carboxymethyl)[Bip]Y(Carboxymethyl)[Orn][dL][Dab][Cha][Val(3-OH)][Thr(3ξ)]C[Dab][Aun]-OH; thioether N-14)
